# Columns and labels:
# C57B1/6J mice [1] = assay: Johnsen's score of the testis tissue (level of spermatogenesis); format: in vivo
# Procedure: (§1) 2,3,7,8-tetrachlorodibenzo-p-dioxin (TCDD) dissolved in toluene (purity of 95% or more as a result of gas chromatography analysis), manufactured by Chem. Services Inc. in USA, was volatilized with nitrogen to obtain powder. The obtained powder was dissolved in a mixed solvent containing acetone and corn oil with a volume ratio of 1:6. The resulting solution each containing 110, 27.5 and 6.9 μg/kg of TCDD was subcutaneously injected to mice at a volume of 5 ml per body weight. […] The mice were supplied with the feed from 10 days before (pre-administration) to 60 days after administration of TCDD (post-administration).
# Upon completion of the experiment for 60 days, the experimental animals were fasted for 24 hours and anesthetized with ether. Then, they were abdominally incised and blood was gathered from abdominal vena cava. They were sacrificed by the release of blood. Liver, kidneys, testes and epididymides were extracted and all the extracted organs were weighed. Only the testes were separately kept and observed under optical and electron microscopes. For biochemical finding test, serum was separated from blood with a centrifuge and the separated serum was analyzed with an automated blood biochemical analyzer, Dimension (Dupont, USA). Blood was put to another blood gathering bottle and then, analyzed with an automated blood cell analyzer, Celldyn (Abbott, USA).
# The extracted testes were fixed in 10% neutralized formalin buffer for 24 hours and washed with the flowing water. It was subsequently dehydrated with ethanol and cleared with xylene and then, embedded with paraffin. It was sectioned with microtome (microm is HM 440E) to a thickness of 2-3 μm and then, double stained with hematoxylin and eosin to observe under an optical microscope.
# For evaluation of the level of spermatogenesis, Johnsen's score was determined from 10 to 1 based on the presence or absence of principal cells arranged according to maturation of spermatogenesis. The basis of Johnsen's score in testes was the following:
# 10: Perfect spermatogenesis having many sperms, organization of embryonic epithelial cells with a constant thickness, and opened lumen
# 9: Despite many sperms, significant separation of embryonic epithelial cells from the basement membrane and disruption thereof, or loss of lumen
# 8: Presence of 5 to less than 10 sperms in the section
# 7: Many sperm cells without sperms
# 6: 5 to less than 10 sperm cells without sperms
# 5: Several or many spermatocytes without sperms and sperm cells
# 4: Less than 5 spermatocytes without sperms and sperm cells
# 3: Presence of only spermatogonia as reproductive cells
# 2: Presence of only Sertoli cells without any reproductive cells
# 1: No cells in the section of seminiferous tubules
# C57B1/6J mice [2] = assay: Feed uptake of mice after a single subcutaneous injection of TCDD; format: in vivo; parameters: unit not given here
# Procedure: Male C57B1/6J mice of 5 weeks old having the average weight of 18-22 g which had been bred in CRJ (Charles River in Japan) were purchased and used in this example as experimental animals. Those mice were acclimated under the constant breeding condition, i.e. the temperature of 24±1° C., the humidity of 60±10% and the light and darkness cycle of 12 hours, for one week and thereafter, utilized in the experiment.
# The Experimental animals were supplied with Purina powdered feed (purchased from Hae Eun Trade) and supplied with water ad libitum. All the animals were weighed twice a week during experimentation.
# as §1
# The results are expressed as Mean±Standard Deviation values. For statistical analysis of the body weight, feed and water uptake, biochemical findings, hematological findings and the weight of organ in an acute toxicity test, verification was performed by one way analysis of variance (ANOVA) in case of equal distribution. In case significance was recognized in ANOVA, the Student's t-test was performed in the levels of p<0.05 and p<0.01.
compound,measurement,setting,value
"C[C@H](CCC(=O)O)[C@H]1CC[C@H]2[C@@H]3[C@@H](O)C[C@@H]4C[C@H](O)CC[C@]4(C)[C@H]3CC[C@]12C [UDCA, 3α, 7β-dihydroxy-5β-cholanoic acid]",Johnsen's score of the testis tissue,C57B1/6J mice [1]; TCDD 6.9 μg/kg + UDCA 0.125 wt % in feed,8.7 ± 0.09
same,Johnsen's score of the testis tissue,C57B1/6J mice [1]; TCDD 6.9 μg/kg + UDCA 0.250 wt % in feed,8.84 ± 0.10
same,Johnsen's score of the testis tissue,C57B1/6J mice [1]; TCDD 6.9 μg/kg + UDCA 0.500 wt % in feed,9.10 ± 0.08
same,Johnsen's score of the testis tissue,C57B1/6J mice [1]; TCDD 27.5 μg/kg + UDCA 0.125 wt % in feed,8.40 ± 0.10
same,Johnsen's score of the testis tissue,C57B1/6J mice [1]; TCDD 27.5 μg/kg + UDCA 0.250 wt % in feed,8.42 ± 0.08
same,Johnsen's score of the testis tissue,C57B1/6J mice [1]; TCDD 27.5 μg/kg + UDCA 0.500 wt % in feed,8.81 ± 0.07
same,feed uptake,"C57B1/6J mice [2]; TCDD 6.9 μg/kg + UDCA 0.125 wt %, 10 days",4.64 ± 0.73
same,feed uptake,"C57B1/6J mice [2]; TCDD 6.9 μg/kg + UDCA 0.125 wt %, 20 days",4.55 ± 0.44
same,feed uptake,"C57B1/6J mice [2]; TCDD 6.9 μg/kg + UDCA 0.125 wt %, 30 days",3.83 ± 0.36
same,feed uptake,"C57B1/6J mice [2]; TCDD 6.9 μg/kg + UDCA 0.125 wt %, 40 days",3.83 ± 0.36
same,feed uptake,"C57B1/6J mice [2]; TCDD 6.9 μg/kg + UDCA 0.125 wt %, 50 days",3.19 ± 0.13
same,feed uptake,"C57B1/6J mice [2]; TCDD 6.9 μg/kg + UDCA 0.125 wt %, 60 days",2.59 ± 0.23
same,feed uptake,"C57B1/6J mice [2]; TCDD 6.9 μg/kg + UDCA 0.25 wt %, 10 days",4.39 ± 0.79
same,feed uptake,"C57B1/6J mice [2]; TCDD 6.9 μg/kg + UDCA 0.25 wt %, 20 days",4.86 ± 0.90
same,feed uptake,"C57B1/6J mice [2]; TCDD 6.9 μg/kg + UDCA 0.25 wt %, 30 days",3.78 ± 0.57
same,feed uptake,"C57B1/6J mice [2]; TCDD 6.9 μg/kg + UDCA 0.25 wt %, 40 days",3.78 ± 0.57
same,feed uptake,"C57B1/6J mice [2]; TCDD 6.9 μg/kg + UDCA 0.25 wt %, 50 days",3.18 ± 0.56
same,feed uptake,"C57B1/6J mice [2]; TCDD 6.9 μg/kg + UDCA 0.25 wt %, 60 days",2.90 ± 0.30
same,feed uptake,"C57B1/6J mice [2]; TCDD 6.9 μg/kg + UDCA 0.5 wt %, 10 days",4.48 ± 0.67
same,feed uptake,"C57B1/6J mice [2]; TCDD 6.9 μg/kg + UDCA 0.5 wt %, 20 days",4.00 ± 1.11
same,feed uptake,"C57B1/6J mice [2]; TCDD 6.9 μg/kg + UDCA 0.5 wt %, 30 days",4.66 ± 0.67
same,feed uptake,"C57B1/6J mice [2]; TCDD 6.9 μg/kg + UDCA 0.5 wt %, 40 days",4.66 ± 0.67
same,feed uptake,"C57B1/6J mice [2]; TCDD 6.9 μg/kg + UDCA 0.5 wt %, 50 days",3.12 ± 0.40
same,feed uptake,"C57B1/6J mice [2]; TCDD 6.9 μg/kg + UDCA 0.5 wt %, 60 days",3.35 ± 1.56
same,feed uptake,"C57B1/6J mice [2]; TCDD 27.5 μg/kg + UDCA 0.125 wt %, 10 days",4.15 ± 0.64
same,feed uptake,"C57B1/6J mice [2]; TCDD 27.5 μg/kg + UDCA 0.125 wt %, 20 days",3.85 ± 0.43
same,feed uptake,"C57B1/6J mice [2]; TCDD 27.5 μg/kg + UDCA 0.125 wt %, 30 days",3.99 ± 0.34
same,feed uptake,"C57B1/6J mice [2]; TCDD 27.5 μg/kg + UDCA 0.125 wt %, 40 days",3.72 ± 0.21
same,feed uptake,"C57B1/6J mice [2]; TCDD 27.5 μg/kg + UDCA 0.125 wt %, 50 days",2.90 ± 0.98
same,feed uptake,"C57B1/6J mice [2]; TCDD 27.5 μg/kg + UDCA 0.125 wt %, 60 days",2.96 ± 0.29
same,feed uptake,"C57B1/6J mice [2]; TCDD 27.5 μg/kg + UDCA 0.25 wt %, 10 days",4.07 ± 0.40
same,feed uptake,"C57B1/6J mice [2]; TCDD 27.5 μg/kg + UDCA 0.25 wt %, 20 days",3.41 ± 0.71
same,feed uptake,"C57B1/6J mice [2]; TCDD 27.5 μg/kg + UDCA 0.25 wt %, 30 days",3.59 ± 0.38
same,feed uptake,"C57B1/6J mice [2]; TCDD 27.5 μg/kg + UDCA 0.25 wt %, 40 days",3.32 ± 0.39
same,feed uptake,"C57B1/6J mice [2]; TCDD 27.5 μg/kg + UDCA 0.25 wt %, 50 days",3.16 ± 0.24
same,feed uptake,"C57B1/6J mice [2]; TCDD 27.5 μg/kg + UDCA 0.25 wt %, 60 days",3.10 ± 0.77
same,feed uptake,"C57B1/6J mice [2]; TCDD 27.5 μg/kg + UDCA 0.5 wt %, 10 days",4.31 ± 1.49
same,feed uptake,"C57B1/6J mice [2]; TCDD 27.5 μg/kg + UDCA 0.5 wt %, 20 days",4.67 ± 1.13
same,feed uptake,"C57B1/6J mice [2]; TCDD 27.5 μg/kg + UDCA 0.5 wt %, 30 days",3.99 ± 0.36
same,feed uptake,"C57B1/6J mice [2]; TCDD 27.5 μg/kg + UDCA 0.5 wt %, 40 days",3.49 ± 0.57
same,feed uptake,"C57B1/6J mice [2]; TCDD 27.5 μg/kg + UDCA 0.5 wt %, 50 days",3.18 ± 0.55
same,feed uptake,"C57B1/6J mice [2]; TCDD 27.5 μg/kg + UDCA 0.5 wt %, 60 days",3.17 ± 0.49
same,feed uptake,"C57B1/6J mice [2]; TCDD 110.0 μg/kg + UDCA 0.125 wt %, 10 days",3.77 ± 0.43
same,feed uptake,"C57B1/6J mice [2]; TCDD 110.0 μg/kg + UDCA 0.125 wt %, 20 days",3.64 ± 1.16
same,feed uptake,"C57B1/6J mice [2]; TCDD 110.0 μg/kg + UDCA 0.125 wt %, 30 days",2.94 ± 0.64
same,feed uptake,"C57B1/6J mice [2]; TCDD 110.0 μg/kg + UDCA 0.125 wt %, 40 days",1.99 ± 0.58
same,feed uptake,"C57B1/6J mice [2]; TCDD 110.0 μg/kg + UDCA 0.25 wt %, 10 days",3.65 ± 0.33
same,feed uptake,"C57B1/6J mice [2]; TCDD 110.0 μg/kg + UDCA 0.25 wt %, 20 days",3.09 ± 0.44
same,feed uptake,"C57B1/6J mice [2]; TCDD 110.0 μg/kg + UDCA 0.25 wt %, 30 days",3.23 ± 0.55
